Where two headings read alike, the source gives them in different places. [invdT] = inverted (3'-3') thymidine; d = 2'-deoxy (DNA); m = 2'-O-methyl
What was measured:
[1] = test system: full length human vWF (SEQ ID NO 7); assay: dot blot KD determination and extent of binding, full length human vWF; conditions: for % binding @ 100 nM vWF: extent of aptamer binding at 100 nM full length human vWF; for Kd: full length human vWF, read-out: KD;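 on all read-outs here: dot blot binding of aptamers to full length human vWF across a protein titration, incubated 30 minutes at room temperature in 1x DPBS with BSA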
[2] = not given; remark: listed apart in the source
[3] = test system: full length human vWF binding to lyophilized platelets; assay: Full length human von Willebrand Factor platelet binding assay (FACS); assay type: cell-based; conditions: read-out: FACS IC50 vs human full length vWF
Procedure, shortened: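 Aptamer titrations (0.1–1000 nM) pre-incubated with 5 nM full-length human vWF, then added to lyophilized platelets plus botrocetin for 15 min at 37 °C in PBS/0.5% BSA. Bound vWF detected by anti-vWF then FITC secondary antibody via flow cytometry MFI; % inhibition versus no-aptamer binding fitted for IC50.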

[4] = test system: rabbit vWF domain A1 binding to lyophilized platelets; assay: Rabbit von Willebrand Factor domain A1 platelet binding assay (FACS); assay type: cell-based; conditions: read-out: FACS IC50 vs rabbit A1 domain
Description: Botrocetin induces the binding of the A1 domain of vWF to platelets, as well as the full length protein. It was determined by the inventors that 6-Histidine-tagged rabbit A1 domain vWF purified protein could be induced to bind to human lyophilized platelets with botrocetin. Rabbit A1 binding to platelets is measured with an anti-poly-His antibody followed by incubation with a phycoerythrin conjugated secondary antibody. The degree of binding can be quantified by flow cytometric analysis. The ability of aptamers to block the binding of rabbit A1 to human fixed platelets was correlated with decreased fluorescence signal.
The ability of aptamers of the invention to block rabbit vWF domain A1 binding to lyophilized platelets was also assessed by flow cytometric analysis. Titrations of aptamers (zero, 0.1 nM to 1000 nM) were preincubated briefly with 4 nM of rabbit A1 vWF in FACS buffer (PBS plus 0.5% bovine serum albumin) at room temperature in a volume of 50 uL. Another 50 uL containing 5 uL of lyophilized platelets plus 1 uL of 0.1 U/uL of botrocetin in FACS buffer was added to aptamer/vWF. This reaction was allowed to proceed for 15 minutes at 37 degrees C. after which 200 uL of FACS buffer was added. Platelets were collected by a 6 minute spin at 1470 RCF and the supernatant was discarded. The pellets were resuspended in 100 uL of FACS buffer containing a 1:200 dilution of anti-Penta-HIS-biotin conjugate antibody and were incubated at room temperature for 30 minutes. After the dilution with 200 uL of FACS buffer, the platelets were spun at 1470 RCF for 6 minutes, and the supernatant was discarded. The pellets were resuspended in a 1:100 solution of anti-IgG-PE antibody and were incubated in the dark for 30 minutes at room temperature. The entire 100 uL was diluted into 200 uL of FACS buffer and analyzed immediately by flow cytometric analysis in the FACSCAN. Contaminating debris was eliminated from the analysis by drawing a gate around the population of single and aggregated platelets and collecting data from 10000 events. Median fluorescent intensity (“MedFI”) readings (which are generally equivalent to the MFI readings, described in Example 3a above, for comparative purposes) were quantified for each sample analyzed by flow cytometry. Background MedFI was subtracted from all data points. Percent inhibition was reported by calculating the percent value of binding of […] to platelets in the presence of aptamer at a given concentration relative to binding in the absence of any aptamer (see FIG. 7). IC50 values were determined by fitting the percent inhibition of vWF binding to platelets as a function of aptamer concentration to the equation: % inhibition=% inhibitionmax/(1+IC50/aptamer conc.)

[5] = test system: botrocetin induced platelet aggregation; assay: Inhibition of botrocetin induced platelet aggregation (BIPA) in human PRP; assay type: cell-based; conditions: human platelet rich plasma
Procedure, shortened: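 Fresh human platelet-rich plasma, prewarmed at 37 degrees C, was preincubated one minute with aptamer (zero, 1 nM to 1000 nM) before botrocetin at a per-donor titrated aggregating concentration. Aggregation was followed as light transmittance; the value is the concentration blocking aggregation by 90% or greater after 6 minutes.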

rabbit vWF domain A1 binding to lyophilized platelets, sequence (as listed by the source): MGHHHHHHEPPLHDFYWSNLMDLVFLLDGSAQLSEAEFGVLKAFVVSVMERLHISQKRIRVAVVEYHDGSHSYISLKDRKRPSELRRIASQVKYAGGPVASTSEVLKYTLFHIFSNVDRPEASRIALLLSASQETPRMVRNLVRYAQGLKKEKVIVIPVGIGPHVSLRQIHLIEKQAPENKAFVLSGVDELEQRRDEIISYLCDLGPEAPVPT

Substance	T½ Human plasma [h]	% binding @ 100 nM vWF ([1]; Phase 4 and 5 modification) [%]	Kd ([1]; Phase 4 and 5 modification) [nM]	T½ Rat plasma [2] [h]	IC50 [3] [nM]	% binding @ 100 nM vWF ([1]; Phase 2 modification) [%]	Kd ([1]; Phase 2 modification) [nM]	binding to human vWF ([1]; in words, dot blot)	IC50 [4] [nM]	IC90 [5] [nM]
mCmGmGmCdCmG-s-TmGdCdGdGTmGmCdCmUdCdCmGmUmCmAmCPEGmGmUdGdCdAmGmUmGmCmCmG-3T (CGGCCGTGCGGTGCCUCCGUCACGUGCAGUGCCGT; chemistry not fully specified) [ARC1533]	93	31.7	4							
mGmCmGmUdGdCdAmGmUmGmCmCmUmUmCmGmGmCdCmGTmGdCdGdGTmGmCdCmUdCdCmGmUmCmAmCmGmC-3T (GCGUGCAGUGCCUUCGGCCGTGCGGTGCCUCCGUCACGC; sugars from the 5' end mmmmdddmmmmmmmmmmmdmdmddddmmdmddmmmmmmm, [invdT] at 3' end, backbone and methylation of C not given here) [ARC1346]				19	50	51	11	the most potent	180	> 1000

From patent US7998940B2, “Aptamers to von Willebrand factor and their use as thrombotic disease therapeutics” (Archemix Corp., priority 2004, dated 2011)
